Values joined by “and” are separate entries in the source; they are usually repeats but may differ in a detail not shown here. Identical values can stand only once. Like-named read-outs stand apart in the source and are kept apart here.
Tests used:
human KOR (GoB) [1] = biological target: T1, human KOR (GoB) (Homo sapiens, UniProt P41145, T94V); experiment: cell-based; settings: HEK-293T
T1 construct: expressed in transfected cells; host or cells: HEK293T

human KOR (GoB) [2] = biological target: T2, human KOR (GoB) (Homo sapiens, UniProt P41145, N141A); experiment: cell-based; settings: HEK-293T
T2 construct: expressed in transfected cells; host or cells: HEK293T
T2 sequence (P41145 whole entry N141A): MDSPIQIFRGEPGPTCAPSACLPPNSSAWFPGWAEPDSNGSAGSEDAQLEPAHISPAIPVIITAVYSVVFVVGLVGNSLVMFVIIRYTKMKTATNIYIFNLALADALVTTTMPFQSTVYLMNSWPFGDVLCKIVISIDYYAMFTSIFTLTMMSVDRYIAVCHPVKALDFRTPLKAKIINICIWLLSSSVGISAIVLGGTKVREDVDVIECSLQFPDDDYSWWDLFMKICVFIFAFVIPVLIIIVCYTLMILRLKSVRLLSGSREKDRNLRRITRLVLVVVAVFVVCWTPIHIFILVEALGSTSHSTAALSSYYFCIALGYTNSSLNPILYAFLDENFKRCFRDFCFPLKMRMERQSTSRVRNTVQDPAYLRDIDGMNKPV

human KOR (GoB) [3] = biological target: T3, human KOR (GoB) (Homo sapiens, UniProt P41145, L253A); experiment: cell-based; settings: HEK-293T
T3 construct: expressed in transfected cells; host or cells: HEK293T
T3 sequence (P41145 whole entry L253A): as the sequence (P41145 whole entry N141A) above, with A141N, L253A counted along it

human KOR (GoB) [4] = biological target: T4, human KOR (GoB) (Homo sapiens, UniProt P41145); experiment: cell-based
T4 construct: expressed in transfected cells; host or cells: HEK293T
T4 sequence (P41145 whole entry): as the sequence (P41145 whole entry N141A) above, with A141N counted along it

human KOR (GoB) [5] = biological target: T5, human KOR (GoB) (Homo sapiens, UniProt P41145, R274A); experiment: cell-based; settings: HEK-293T
T5 construct: expressed in transfected cells; host or cells: HEK293T
T5 sequence (P41145 whole entry R274A): as the sequence (P41145 whole entry N141A) above, with A141N, R274A counted along it

human KOR (GoB) [6] = biological target: T6, human KOR (GoB) (Homo sapiens, UniProt P41145, D155A); experiment: cell-based; settings: HEK-293T
T6 construct: expressed in transfected cells; host or cells: HEK293T
T6 sequence (P41145 whole entry D155A): as the sequence (P41145 whole entry N141A) above, with A141N, D155A counted along it

human KOR = biological target: T7, human KOR (Homo sapiens, UniProt P41145, V134A); experiment: cell-based; settings: HEK-293T
T7 construct: expressed in transfected cells; host or cells: HEK 293T (ATCC, CRL-3216)
T7 sequence (P41145 whole entry V134A): as the sequence (P41145 whole entry N141A) above, with V134A, A141N counted along it

human KOR (Gustducin) [7] = biological target: T8, human KOR (Gustducin) (Homo sapiens, UniProt P41145, D105A); experiment: cell-based; settings: HEK-293T
T8 construct: expressed in transfected cells; host or cells: HEK293T
T8 sequence (P41145 whole entry D105A): as the sequence (P41145 whole entry N141A) above, with D105A, A141N counted along it

human KOR (Gustducin) [8] = biological target: T9, human KOR (Gustducin) (Homo sapiens, UniProt P41145, R271A); experiment: cell-based; settings: HEK-293T
T9 construct: expressed in transfected cells; host or cells: HEK293T
T9 sequence (P41145 whole entry R271A): as the sequence (P41145 whole entry N141A) above, with A141N, R271A counted along it

human KOR (Gustducin) [9] = biological target: T10, human KOR (Gustducin) (Homo sapiens, UniProt P41145, Q115N); experiment: cell-based; settings: HEK-293T
T10 construct: expressed in transfected cells; host or cells: HEK293T
T10 sequence (P41145 whole entry Q115N): as the sequence (P41145 whole entry N141A) above, with Q115N, A141N counted along it

human KOR (Gustducin) [10] = biological target: T11, human KOR (Gustducin) (Homo sapiens, UniProt P41145, Y320L); experiment: cell-based; settings: HEK-293T
T11 construct: expressed in transfected cells; host or cells: HEK293T
T11 sequence (P41145 whole entry Y320L): as the sequence (P41145 whole entry N141A) above, with A141N, Y320L counted along it

human KOR (Gustducin) [11] = biological target: T12, human KOR (Gustducin) (Homo sapiens, UniProt P41145); experiment: cell-based
T12 construct: expressed in transfected cells; host or cells: HEK293T
T12 sequence (P41145 whole entry): as the sequence (P41145 whole entry N141A) above, with A141N counted along it

human KOR (Gustducin) [12] = biological target: T13, human KOR (Gustducin) (Homo sapiens, UniProt P41145, E297A); experiment: cell-based; settings: HEK-293T
T13 construct: expressed in transfected cells; host or cells: HEK293T
T13 sequence (P41145 whole entry E297A): as the sequence (P41145 whole entry N141A) above, with A141N, E297A counted along it

human KOR (Gustducin) [13] = biological target: T14, human KOR (Gustducin) (Homo sapiens, UniProt P41145, Y139L); experiment: cell-based; settings: HEK-293T
T14 construct: expressed in transfected cells; host or cells: HEK293T
T14 sequence (P41145 whole entry Y139L): as the sequence (P41145 whole entry N141A) above, with Y139L, A141N counted along it

human KOR (Gustducin) [14] = biological target: T15, human KOR (Gustducin) (Homo sapiens, UniProt P41145, N322A); experiment: cell-based; settings: HEK-293T
T15 construct: expressed in transfected cells; host or cells: HEK293T
T15 sequence (P41145 whole entry N322A): as the sequence (P41145 whole entry N141A) above, with A141N, N322A counted along it

human KOR (Gustducin) [15] = biological target: T16, human KOR (Gustducin) (Homo sapiens, UniProt P41145, T94V); experiment: cell-based; settings: HEK-293T
T16 construct: expressed in transfected cells; host or cells: HEK293T
T16 sequence (P41145 whole entry T94V): as the sequence (P41145 whole entry N141A) above, with T94V, A141N counted along it

human KOR (Gustducin) [16] = biological target: T17, human KOR (Gustducin) (Homo sapiens, UniProt P41145, R170A); experiment: cell-based; settings: HEK-293T
T17 construct: expressed in transfected cells; host or cells: HEK293T
T17 sequence (P41145 whole entry R170A): as the sequence (P41145 whole entry N141A) above, with A141N, R170A counted along it

human KOR (Gustducin) [17] = biological target: T18, human KOR (Gustducin) (Homo sapiens, UniProt P41145, R274A); experiment: cell-based; settings: HEK-293T
T18 construct: expressed in transfected cells; host or cells: HEK293T
T18 sequence (P41145 whole entry R274A): as the sequence (P41145 whole entry N141A) above, with A141N, R274A counted along it

human KOR (Gustducin) [18] = biological target: T19, human KOR (Gustducin) (Homo sapiens, UniProt P41145, F114L); experiment: cell-based; settings: HEK-293T
T19 construct: expressed in transfected cells; host or cells: HEK293T
T19 sequence (P41145 whole entry F114L): as the sequence (P41145 whole entry N141A) above, with F114L, A141N counted along it

human KOR (Gustducin) [19] = biological target: T20, human KOR (Gustducin) (Homo sapiens, UniProt P41145, D334A); experiment: cell-based; settings: HEK-293T
T20 construct: expressed in transfected cells; host or cells: HEK293T
T20 sequence (P41145 whole entry D334A): as the sequence (P41145 whole entry N141A) above, with A141N, D334A counted along it

human KOR (Gustducin) [20] = biological target: T21, human KOR (Gustducin) (Homo sapiens, UniProt P41145, D155A); experiment: cell-based; settings: HEK-293T
T21 construct: expressed in transfected cells; host or cells: HEK293T
T21 sequence (P41145 whole entry D155A): as the sequence (P41145 whole entry N141A) above, with A141N, D155A counted along it

human KOR (Gustducin) [21] = biological target: T22, human KOR (Gustducin) (Homo sapiens, UniProt P41145, K227A); experiment: cell-based; settings: HEK-293T
T22 construct: expressed in transfected cells; host or cells: HEK293T
T22 sequence (P41145 whole entry K227A): as the sequence (P41145 whole entry N141A) above, with A141N, K227A counted along it

human KOR (Gustducin) [22] = biological target: T23, human KOR (Gustducin) (Homo sapiens, UniProt P41145, F283A); experiment: cell-based; settings: HEK-293T
T23 construct: expressed in transfected cells; host or cells: HEK293T
T23 sequence (P41145 whole entry F283A): as the sequence (P41145 whole entry N141A) above, with A141N, F283A counted along it

human KOR (Gustducin) [23] = biological target: T24, human KOR (Gustducin) (Homo sapiens, UniProt P41145, D266A); experiment: cell-based; settings: HEK-293T
T24 construct: expressed in transfected cells; host or cells: HEK293T
T24 sequence (P41145 whole entry D266A): as the sequence (P41145 whole entry N141A) above, with A141N, D266A counted along it

human KOR (Gustducin) [24] = biological target: T25, human KOR (Gustducin) (Homo sapiens, UniProt P41145, K200A); experiment: cell-based; settings: HEK-293T
T25 construct: expressed in transfected cells; host or cells: HEK293T
T25 sequence (P41145 whole entry K200A): as the sequence (P41145 whole entry N141A) above, with A141N, K200A counted along it

human KOR (Gustducin) [25] = biological target: T26, human KOR (Gustducin) (Homo sapiens, UniProt P41145, N141A); experiment: cell-based; settings: HEK-293T
T26 construct: expressed in transfected cells; host or cells: HEK293T
T26 sequence (P41145 whole entry N141A): as the sequence (P41145 whole entry N141A) above

human KOR (Gustducin) [26] = biological target: T27, human KOR (Gustducin) (Homo sapiens, UniProt P41145, R257A); experiment: cell-based; settings: HEK-293T
T27 construct: expressed in transfected cells; host or cells: HEK293T
T27 sequence (P41145 whole entry R257A): as the sequence (P41145 whole entry N141A) above, with A141N, R257A counted along it

human KOR (Gustducin) [27] = biological target: T28, human KOR (Gustducin) (Homo sapiens, UniProt P41145, N326A); experiment: cell-based; settings: HEK-293T
T28 construct: expressed in transfected cells; host or cells: HEK293T
T28 sequence (P41145 whole entry N326A): as the sequence (P41145 whole entry N141A) above, with A141N, N326A counted along it

human KOR (Gustducin) [28] = biological target: T29, human KOR (Gustducin) (Homo sapiens, UniProt P41145, G319L); experiment: cell-based; settings: HEK-293T
T29 construct: expressed in transfected cells; host or cells: HEK293T
T29 sequence (P41145 whole entry G319L): as the sequence (P41145 whole entry N141A) above, with A141N, G319L counted along it

human KOR (Gustducin) [29] = biological target: T30, human KOR (Gustducin) (Homo sapiens, UniProt P41145, L253A); experiment: cell-based; settings: HEK-293T
T30 construct: expressed in transfected cells; host or cells: HEK293T
T30 sequence (P41145 whole entry L253A): as the sequence (P41145 whole entry N141A) above, with A141N, L253A counted along it

KOR Q115N = KOR Q115N (Homo sapiens, UniProt P41145, Q115N); experiment: cell-based; design: expressed in transfected cells; host or cells: HEK 293T (ATCC, CRL-3216); settings: read-out: cAMP response (Figure S4C), KOR Q115N, Log [Drug], replicate values
Sequence of KOR Q115N (P41145 whole entry Q115N): as the sequence (P41145 whole entry N141A) above, with Q115N, A141N counted along it

KOR = test system: KOR; design: method as in Cao et al., ACS Chem Neuro 2020; settings: ref Cao et al., ACS Chem Neuro 2020; cited from earlier work

T1 sequence (P41145 whole entry T94V): as the sequence (P41145 whole entry N141A) above, with T94V, A141N counted along it

SMILES: CN(C(=O)/C=C/c1ccoc1)[C@@H]1CC[C@@]2(O)[C@H]3Cc4ccc(O)c5c4[C@@]2(CCN3CC2CC2)[C@H]1O5 [Nalfurafine, nalfurafine]
- Emax (human KOR (GoB) [1]): 100%
- Emax (human KOR (GoB) [2]): 98.7%
- Emax (human KOR (GoB) [3]): 107%
- Emax% (human KOR (GoB) [4]): 99.55%
- Emax (human KOR (GoB) [4]; HEK-293T): 99.8%
- Emax (human KOR (GoB) [5]): 101%
- Emax (human KOR (GoB) [6]): 99%
- Emax (human KOR): 93 ± 3%
- activation at 3.162 pM (human KOR; read-out: cAMP response): 23.5%
- activation at 10 pM (human KOR; read-out: cAMP response): 48.2%
- activation at 31.62 pM (human KOR; read-out: cAMP response): 53.1%
- activation at 0.0001 µM (human KOR; read-out: cAMP response): 62.8%
- activation at 0.001 µM (human KOR; read-out: cAMP response): 82.5%
- activation at 0.01 µM (human KOR; read-out: cAMP response): 96.2%
- activation at 0.1 µM (human KOR; read-out: cAMP response): 104%
- activation at 1 µM (human KOR; read-out: cAMP response): 96.6%
- activation at […] (human KOR; read-out: cAMP response): 58.2% and 90% and 99.4% and 95.7%
- Emax (human KOR (Gustducin) [7]): 70.2%
- Emax (human KOR (Gustducin) [8]): 56.9%
- Emax (human KOR (Gustducin) [9]): 62.9%
- Emax (human KOR (Gustducin) [10]): 80%
- Emax% (human KOR (Gustducin) [11]): 65%
- Emax (human KOR (Gustducin) [11]; HEK-293T): 65.6%
- Emax (human KOR (Gustducin) [12]): 73.1%
- Emax (human KOR (Gustducin) [13]): 55.3%
- Emax (human KOR (Gustducin) [14]): 96.6%
- Emax (human KOR (Gustducin) [15]): 73.6%
- Emax (human KOR (Gustducin) [16]): 77.5%
- Emax (human KOR (Gustducin) [17]): 82%
- Emax (human KOR (Gustducin) [18]): 60.6%
- Emax (human KOR (Gustducin) [19]): 100%
- Emax (human KOR (Gustducin) [20]): 91.8%
- Emax (human KOR (Gustducin) [21]): 85.5%
- Emax (human KOR (Gustducin) [22]): 100%
- Emax (human KOR (Gustducin) [23]): 62.6%
- Emax (human KOR (Gustducin) [24]): 75.7%
- Emax (human KOR (Gustducin) [25]): 79.1%
- Emax (human KOR (Gustducin) [26]): 53.8%
- Emax (human KOR (Gustducin) [27]): 49.2%
- Emax (human KOR (Gustducin) [28]): 80.9%
- Emax (human KOR (Gustducin) [29]): 61.4%
- activation at 1 µM (KOR Q115N; M -6): 99.3%
- activation at […] (KOR Q115N; M -6.5): 94.1%
- activation at 0.1 µM (KOR Q115N; M -7): 101%
- activation at […] (KOR Q115N; M -7.5): 96.7%
- activation at 0.01 µM (KOR Q115N; M -8): 100%
- activation at […] (KOR Q115N; M -8.5): 91.3%
- activation at 0.001 µM (KOR Q115N; M -9): 89.3%
- activation at […] (KOR Q115N; M -9.5): 82.2%
- activation at 0.0001 µM (KOR Q115N; M -10): 67.6%
- activation at 10 pM (KOR Q115N; M -11): 7.51%
- bias factor toward G protein signaling (KOR): 4.5

Reference: paper PMC10008561 (Nature Communications, 2023)
